Source: US20220047507A1, “MELFLUFEN DOSAGE REGIMENS FOR CANCER” (ONCOPEPTIDES AB, priority 2015, published 2022)

How the values were obtained:
[1] = tested on: patients with relapsed and/or relapsed-refractory multiple myeloma; test: Safety of various dosages of melflufen, TEAEs (Example 1); assay type: in vivo, human
Experimental: Example 1: 4 dose levels (15, 25, 40 and 55 mg) of intravenous melflufen hydrochloride (excluding the mass of the salt component) in 290 to 370 ml glucose solution administered over 30 minutes on Day 1 of a 21-day cycle (in combination with dexamethasone treatment on Days 1, 8 and 15), for at least 1 cycle and up to 12 cycles, were evaluated.
Treatment emergent adverse events (TEAEs) of any grade were recorded in 29 patients that took part in Example 1 (4 patients at 15 mg dosage of melflufen over 30 minutes; 7 patients at 25 mg dosage of melflufen over 30 minutes; 12 patients at 40 mg dosage of melflufen over 30 minutes; and 6 patients at 55 mg dosage of melflufen over 30 minutes).

[2] = tested on: primary MM cells from patients; details: in vitro, incl. patients relapsing after bortezomib, lenalidomide, dexamethasone; cited from earlier work
[3] = tested on: relapsed-refractory multiple myeloma (RRMM) patients; test: Efficacy in patients with RRMM, Example 2a; assay type: in vivo, human
Experimental: Example 2: An open label single arm extension on the dose of 40 mg over 30 minutes of Example 1. Intravenous melflufen was administered over 30 minutes on Day 1 of a 21-day cycle or 28-day cycle (in combination with 40 mg dexamethasone (oral or intravenous) treatment on Days 1, 8 and 15) for at least 2 cycles, and up to the stated number of cycles. The cycle length was extended during the Example 2 Clinical Trial from 21 to 28 days per a protocol amendment to allow for a better recovery of neutrophils and thrombocytes before a new cycle is initiated.
Example 2a results are from a data cut-off of time point (a). Example 2b results are from a data cut-off of time point (bi) for the efficacy data, which was approximately 12 months after time point (a); and from a data cut-off of time point (bii) for the safety data, which was approximately 10 months after time point (a).
By the data cut-off point for Example 2a, 38 patients with relapsing MM had been dosed with 40 mg of melflufen hydrochloride (the 40 mg dosage excludes the mass of the salt component) administered over 30 minutes every 3 weeks (21 days) in combination with weekly dexamethasone (day 1, 8 and 15). 162 doses of melflufen were administered in total. The median number of cycles initiated was 3 (1-13) and the median duration of treatment was 13 weeks (2-51). The mean dose intensity was 96% (77-100). By the data cut-off point, ten patients were still in treatment, 2 had completed treatment and 26 patients discontinued from treatment (15 due to AEs, 8 due to PD, 2 deaths and 1 for other reasons). Twenty-seven patients were still in the study (10 patients in treatment and 17 in follow-up), while 11 patients were off study (8 patients due to death, 1 due to PD, 1 withdrew consent and 1 lost in follow-up).
Twenty-seven patients were evaluable for efficacy (per the protocol, these patients had received at least two cycles of melflufen and had adequate follow-up assessments). 11 patients were not evaluable for response due to rapid early progression (7), early termination due to adverse events (3) or too early to assess (1).

[4] = 55 mg melflufen hydrochloride, 6 patients
[5] = Example 1, all dose levels, 29 patients
[6] = Evaluable ≥ 2 cycles, n 27, listed as Melflufen
[7] = Number of refractory agents 0, Example 2a (n = 27)
[8] = Number of refractory agents 1, Example 2a (n = 27)
[9] = Number of refractory agents 2, Example 2a (n = 27)
[10] = Number of refractory agents 3, Example 2a (n = 27)
[11] = Number of refractory agents 4, Example 2a (n = 27)
[12] = Pomalidomide refractory, Example 2a, 27 evaluable
[13] = refractory status None, Example 2a, 27 evaluable
[14] = refractory status PI + IMiD + Alkylator, Example 2a, 27 evaluable

CCOC(=O)[C@H](Cc1ccc(F)cc1)NC(=O)[C@@H](N)Cc1ccc(N(CCCl)CCCl)cc1.Cl [melflufen, L-Melphalanyl-4-fluoro-L-phenylalanine ethyl ester]
Any treatment-related Grade 3 and 4 TEAE, n patients ([1]; 15 mg over 30 min (n = 4)): 2
Any treatment-related Grade 3 and 4 TEAE, total number of events ([1]; 15 mg over 30 min (n = 4)): (4)
Grade 3 and 4 febrile neutropenia, n patients ([1]; 15 mg over 30 min (n = 4)): 1
Grade 3 and 4 febrile neutropenia, total number of events ([1]; 15 mg over 30 min (n = 4)): (1)
Grade 3 and 4 neutropenia, n patients ([1]; 15 mg over 30 min (n = 4)): 0
Grade 3 and 4 neutropenia, total number of events ([1]; 15 mg over 30 min (n = 4)): (0)
Grade 3 and 4 thrombocytopenia, n patients ([1]; 15 mg over 30 min (n = 4)): 1
Grade 3 and 4 thrombocytopenia, total number of events ([1]; 15 mg over 30 min (n = 4)): (1)
Any treatment-related Grade 3 and 4 TEAE, n patients ([1]; 25 mg over 30 min (n = 7)): 5
Any treatment-related Grade 3 and 4 TEAE, total number of events ([1]; 25 mg over 30 min (n = 7)): (13)
Grade 3 and 4 febrile neutropenia, n patients ([1]; 25 mg over 30 min (n = 7)): 0
Grade 3 and 4 febrile neutropenia, total number of events ([1]; 25 mg over 30 min (n = 7)): (0)
Grade 3 and 4 neutropenia, n patients ([1]; 25 mg over 30 min (n = 7)): 2
Grade 3 and 4 neutropenia, total number of events ([1]; 25 mg over 30 min (n = 7)): (6)
Grade 3 and 4 thrombocytopenia, n patients ([1]; 25 mg over 30 min (n = 7)): 2
Grade 3 and 4 thrombocytopenia, total number of events ([1]; 25 mg over 30 min (n = 7)): (3)
Any treatment-related Grade 3 and 4 TEAE, n patients ([1]; 40 mg over 30 min (n = 12)): 7
Any treatment-related Grade 3 and 4 TEAE, total number of events ([1]; 40 mg over 30 min (n = 12)): (23)
Grade 3 and 4 febrile neutropenia, n patients ([1]; 40 mg over 30 min (n = 12)): 1
Grade 3 and 4 febrile neutropenia, total number of events ([1]; 40 mg over 30 min (n = 12)): (2)
Grade 3 and 4 neutropenia, n patients ([1]; 40 mg over 30 min (n = 12)): 4
Grade 3 and 4 neutropenia, total number of events ([1]; 40 mg over 30 min (n = 12)): (8)
Grade 3 and 4 thrombocytopenia, n patients ([1]; 40 mg over 30 min (n = 12)): 4
Grade 3 and 4 thrombocytopenia, total number of events ([1]; 40 mg over 30 min (n = 12)): (9)
Anemia, treatment related ≥grade 3 [1, 4]: (33) %
Any treatment-related grade 3 and/or grade 4, ≥grade 3 [1, 4]: (100) %
Blood and lymphatic system disorders, treatment related ≥grade 3 [1, 4]: (100) %
Cutaneous rash, treatment related ≥grade 3 [1, 4]: (17) %
Fatigue, treatment related ≥grade 3 [1, 4]: (17) %
General disorders and administration site conditions, treatment related ≥grade 3 [1, 4]: (17) %
Infections and infestations, treatment related ≥grade 3 [1, 4]: (50) %
Neutropenia, treatment related ≥grade 3 [1, 4]: (100) %
Pancytopenia, treatment related ≥grade 3 [1, 4]: (17) %
Pneumonia, treatment related ≥grade 3 [1, 4]: (33) %
Sepsis, treatment related ≥grade 3 [1, 4]: (17) %
Skin and subcutaneous disorders, treatment related ≥grade 3 [1, 4]: (17) %
Thrombocytopenia, treatment related ≥grade 3 [1, 4]: (83) %
Urinary tract infection, treatment related ≥grade 3 [1, 4]: (17) %
Any treatment-related Grade 3 and 4 TEAE, n patients ([1]; 55 mg over 30 min (n = 6)): 6
Any treatment-related Grade 3 and 4 TEAE, total number of events ([1]; 55 mg over 30 min (n = 6)): (58)
Grade 3 and 4 febrile neutropenia, n patients ([1]; 55 mg over 30 min (n = 6)): 1
Grade 3 and 4 febrile neutropenia, total number of events ([1]; 55 mg over 30 min (n = 6)): (1)
Grade 3 and 4 neutropenia, n patients ([1]; 55 mg over 30 min (n = 6)): 5
Grade 3 and 4 neutropenia, total number of events ([1]; 55 mg over 30 min (n = 6)): (17)
Grade 3 and 4 thrombocytopenia, n patients ([1]; 55 mg over 30 min (n = 6)): 5
Grade 3 and 4 thrombocytopenia, total number of events ([1]; 55 mg over 30 min (n = 6)): (28)
related Grade 3 or 4 neutropenia at least once, patients ([1]; Example 1, all dose levels): 38%
related Grade 3 or 4 thrombocytopenia at least once, patients ([1]; Example 1, all dose levels): 41%
total number of TEAEs reported ([1]; Example 1, all dose levels 15-55 mg, 29 patients): 157
Grade 3 or 4 TEAEs, regardless of relationship, patients [1, 5]: 76%
anemia, all grades, regardless of relationship [1, 5]: 59%
anemia, all grades, regardless of relationship, n patients [1, 5]: 17
nausea, all grades, regardless of relationship [1, 5]: 38%
nausea, all grades, regardless of relationship, n patients [1, 5]: 11
neutropenia, all grades, regardless of relationship [1, 5]: 41%
neutropenia, all grades, regardless of relationship, n patients [1, 5]: 12
thrombocytopenia, all grades, regardless of relationship [1, 5]: 69%
thrombocytopenia, all grades, regardless of relationship, n patients [1, 5]: 20
Grade 3 or 4 TEAEs, regardless of relationship, n patients ([1]; Example 1, all dose levels, of 29 patients): 22
cytotoxic activity in primary MM cells [2]: Potent cytotoxic activity
Clinical Benefit Rate (CBR) ([3]; Evaluable ≥ 1 cycle, n 35): 43%
Minimal Response (MR), patients ([3]; Evaluable ≥ 1 cycle, n 35): 4
Overall Response Rate (ORR) ([3]; Evaluable ≥ 1 cycle, n 35): 31%
Stable Disease (SD), patients ([3]; Evaluable ≥ 1 cycle, n 35): 12
Very Good Positive Response (PR), patients ([3]; Evaluable ≥ 1 cycle, n 35): 2
Clinical Benefit Rate (CBR) ([3]; Evaluable ≥ 2 cycles, n 27): 56%
Minimal Response (MR), patients ([3]; Evaluable ≥ 2 cycles, n 27): 4
Overall Response Rate (ORR) ([3]; Evaluable ≥ 2 cycles, n 27): 41%
Positive Response (PR), patients ([3]; Evaluable ≥ 2 cycles, n 27): 9
Progressive Disease (PD), patients ([3]; Evaluable ≥ 2 cycles, n 27): 1
Stable Disease (SD), patients ([3]; Evaluable ≥ 2 cycles, n 27): 11
Very Good Positive Response (PR), patients ([3]; Evaluable ≥ 2 cycles, n 27, 40 mg over 30 min + dexamethasone): 2
Clinical Benefit Rate (CBR) [3, 6]: 56%
Overall Response Rate (ORR) [3, 6]: 41%
median duration of response (DOR) ([3]; Example 2a, 4 events in 11 responding patients): 9.6 months
median progression free survival (PFS) ([3]; Example 2a, 13 events in 27 patients): 9.4 months
hazard ratio for melflufen compared to pomalidomide (PFS) ([3]; Example 2a, all treated n=38 vs published pomalidomide trial): 0.68 (0.44-1.05)
CBR(≥MR) [3, 7]: (100) %
ORR (≥PR) [3, 7]: (100) %
CBR(≥MR) [3, 8]: (54) %
ORR (≥PR) [3, 8]: (38) %
CBR(≥MR) [3, 9]: (57) %
ORR (≥PR) [3, 9]: (43) %
CBR(≥MR) [3, 10]: (63) %
ORR (≥PR) [3, 10]: (44) %
CBR(≥MR) [3, 11]: (71) %
ORR (≥PR) [3, 11]: (43) %
CRR (≥MR) [3, 12]: (50) %
ORR (≥PR) [3, 12]: (30) %
reduction in risk of death over 16 months compared to pomalidomide ([3]; RRMM patient population, Example 2a): 32%
CRR (≥MR) ([3]; Triple refractory (2 PI/ImiD + 1 ImiD/PI), Example 2a, 27 evaluable): (60) %
best response of minimal response (MR) or better, n patients ([3]; of 27 evaluable): 15
confirmed PR, n patients ([3]; of 27 evaluable): 11
CRR (≥MR) ([3]; refractory status Alkylator, Example 2a, 27 evaluable): (64) %
CRR (≥MR) ([3]; refractory status IMiD, Example 2a, 27 evaluable): (52) %
CRR (≥MR) [3, 13]: (100) %
ORR (≥PR) [3, 13]: (100) %
CRR (≥MR) [3, 14]: (44) %
ORR (≥PR) [3, 14]: (33) %
CRR (≥MR) ([3]; refractory status PI + IMiD, Example 2a, 27 evaluable): (44) %
CRR (≥MR) ([3]; refractory status PI, Example 2a, 27 evaluable): (47) %
